By AC50 is commonly meant the concentration giving half of the maximal activity seen. Usually EC50 stands for the concentration that produces a half-maximal response. By CC50 is commonly meant the concentration giving 50% cytotoxicity.

The test system of one assay is INS1. Put plainly: INS-1E survival protection against cytokine death – cell-based, luminescence, retest, dose response (AID 449756).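 Further: cell death triggered by IL-1 beta plus TNF-alpha plus IFN-gamma mixture; protective hits raise ATP signal compared with cytokine alone wells.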 The format is functional. Particulars: Rattus norvegicus.
Assay [1] is described as follows: luciferase reporter signal suppression in cells – H4 neuroglioma cells, luminescence, dose response (AID 1990). The format is functional, cell-based. Background: A reporter such as luciferase makes a cellular process visible.
A short description of assay [2]: Luminescence Cell-Based Dose Response HTS to Identify Inhibitors of 5'UTR Stem-Loop Driven Prion Protein mRNA Translation in H4 Neuroglioblastoma Cells. [Related pubchem assays: 1827 (Project Summary), 1813 (Primary HTS)]. The format is functional.
Assay [3] in a line: alpha-synuclein stem-loop luciferase translation blockers – H4 neuroglioma cells, luminescence, confirmation (AID 1988). It counts as functional, cell-based.
Assay [4] deals with Streptococcus sp. 'group A'. Put plainly: Streptococcus pyogenes SK(-)GAS viability under kanamycin – luminescence, BacTiterGlo, confirmation, counter-screen for streptokinase expression inhibitor project, dose response (AID 1900). The format is functional, organism-based. On the technique in general: A counterscreen serves to expose hits that act by an unwanted route or on another target.

The next assay addresses T1, Streptokinase A (Streptococcus pyogenes serotype M1, UniProt P10520).
T1 sequence (P10520 whole entry): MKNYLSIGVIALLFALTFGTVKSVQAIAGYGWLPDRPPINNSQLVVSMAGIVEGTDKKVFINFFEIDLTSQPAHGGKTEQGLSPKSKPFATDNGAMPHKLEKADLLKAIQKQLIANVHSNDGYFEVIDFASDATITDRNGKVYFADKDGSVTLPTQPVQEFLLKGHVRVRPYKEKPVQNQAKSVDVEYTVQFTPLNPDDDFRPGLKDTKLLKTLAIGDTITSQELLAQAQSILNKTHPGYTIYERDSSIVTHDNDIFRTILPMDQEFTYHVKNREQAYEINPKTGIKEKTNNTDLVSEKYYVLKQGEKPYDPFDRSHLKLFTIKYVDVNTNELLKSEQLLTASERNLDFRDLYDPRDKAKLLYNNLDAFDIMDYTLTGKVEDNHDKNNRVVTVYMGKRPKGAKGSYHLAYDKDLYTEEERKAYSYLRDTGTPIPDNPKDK
Put plainly: viability-normalized secreted streptokinase activity reduction – plasminogen activation absorbance, OD405, dose response (AID 1914).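 Further: secreted streptokinase activity via plasminogen activation per viability signal from cell pellet.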 The format is functional, Streptococcus pyogenes M1 GAS.

For a further assay, the system named is Streptococcus. Put plainly: GAS UMAA2166 growth inhibition – luminescence, BacTiterGlo, counter-screen for streptokinase expression inhibitor project, dose response (AID 1915).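 Further: potency for reduction of bacterial viability or growth.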 The format is functional, organism-based.
In a further assay the target is Cytochrome P450 3A4 (Homo sapiens, UniProt P08684).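 Further: CYP3A4 tested as one member of a cytochrome P450 panel screen.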
Assay [5] is described as follows: viability of uninfected HEp-2 cells – cell-based, HTS, cytotoxicity control for RSV inhibitor project, dose response (AID 2410). It counts as functional. Particulars: human respiratory syncytial virus.
The target in a further assay is T2, Protein RecA (Mycobacterium tuberculosis, UniProt P9WHJ3).
T2 sequence (P9WHJ3 whole entry): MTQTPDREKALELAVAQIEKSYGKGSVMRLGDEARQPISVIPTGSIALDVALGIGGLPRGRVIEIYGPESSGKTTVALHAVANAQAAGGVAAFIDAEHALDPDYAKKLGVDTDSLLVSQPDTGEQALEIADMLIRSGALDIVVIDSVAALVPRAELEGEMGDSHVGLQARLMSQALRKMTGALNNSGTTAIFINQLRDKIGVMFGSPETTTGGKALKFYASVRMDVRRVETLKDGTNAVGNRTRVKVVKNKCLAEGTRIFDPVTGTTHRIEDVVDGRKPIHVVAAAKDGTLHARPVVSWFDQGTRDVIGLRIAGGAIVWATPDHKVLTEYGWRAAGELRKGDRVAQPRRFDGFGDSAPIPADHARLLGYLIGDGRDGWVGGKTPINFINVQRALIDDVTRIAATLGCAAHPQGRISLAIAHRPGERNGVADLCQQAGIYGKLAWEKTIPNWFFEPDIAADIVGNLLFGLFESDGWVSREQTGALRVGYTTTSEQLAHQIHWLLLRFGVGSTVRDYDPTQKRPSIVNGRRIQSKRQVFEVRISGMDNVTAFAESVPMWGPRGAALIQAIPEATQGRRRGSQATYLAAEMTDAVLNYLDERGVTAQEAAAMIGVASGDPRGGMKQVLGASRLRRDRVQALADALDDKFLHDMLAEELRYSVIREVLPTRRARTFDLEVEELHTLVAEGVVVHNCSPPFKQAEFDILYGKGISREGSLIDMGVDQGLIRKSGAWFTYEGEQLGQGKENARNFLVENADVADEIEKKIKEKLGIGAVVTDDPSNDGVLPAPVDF
Put plainly: Fluorescence Cell-Free Homogeneous Dose Retest to Identify Inhibitors of RecA-Intein Splicing Activity. [Related pubchem assays (depositor defined):AID2097, AID2223, AID489010, AID492950]. The format is functional.

Assay [6] in a line: NIH-3T3 fibroblast cytotoxicity, dose response, cytotoxicity control, cell-based, fluorescence, Alamar Blue, secondary assay (AID 2327).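 Further: NIH-3T3 mouse fibroblasts cultured with fluconazole at 8 µg/mL.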 It counts as functional.
In assay [7] the target is T3, Heat shock factor protein 1 (Mus musculus, UniProt P38532).
T3 sequence (P38532 whole entry): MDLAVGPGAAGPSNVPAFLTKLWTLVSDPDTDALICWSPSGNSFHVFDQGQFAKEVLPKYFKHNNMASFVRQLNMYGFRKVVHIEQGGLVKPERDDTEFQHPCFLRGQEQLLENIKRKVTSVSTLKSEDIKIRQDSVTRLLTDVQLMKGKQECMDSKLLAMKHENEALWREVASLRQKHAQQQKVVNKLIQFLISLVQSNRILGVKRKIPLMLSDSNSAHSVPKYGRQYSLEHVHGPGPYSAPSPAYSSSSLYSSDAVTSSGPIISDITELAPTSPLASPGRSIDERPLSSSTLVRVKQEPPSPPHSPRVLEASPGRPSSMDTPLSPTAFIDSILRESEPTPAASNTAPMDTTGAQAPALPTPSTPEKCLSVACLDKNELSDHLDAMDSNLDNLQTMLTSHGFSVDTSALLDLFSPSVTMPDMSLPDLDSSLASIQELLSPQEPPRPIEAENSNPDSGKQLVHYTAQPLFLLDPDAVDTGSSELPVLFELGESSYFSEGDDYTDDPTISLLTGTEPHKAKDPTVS
Put plainly: decrease of HSF1-responsive luciferase luminescence – cell-based, NIH3T3, dose retest, confirmation (AID 2382).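 Further: NIH3T3 fibroblasts with HSF1-driven luciferase reporter stressed by proteasome inhibitor MG132; luminescence from HSF1-driven luciferase expression after 8 hours of MG132 stress.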 The format is functional.

The target in assay [8] is T4, RNA-binding protein pos-1 (Caenorhabditis elegans, UniProt G5EF15).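 Further: purified POS-1 fused to maltose binding protein made in E. coli; potency of compounds blocking POS-1 binding to fluorescent RNA.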
T4 sequence (G5EF15 whole entry): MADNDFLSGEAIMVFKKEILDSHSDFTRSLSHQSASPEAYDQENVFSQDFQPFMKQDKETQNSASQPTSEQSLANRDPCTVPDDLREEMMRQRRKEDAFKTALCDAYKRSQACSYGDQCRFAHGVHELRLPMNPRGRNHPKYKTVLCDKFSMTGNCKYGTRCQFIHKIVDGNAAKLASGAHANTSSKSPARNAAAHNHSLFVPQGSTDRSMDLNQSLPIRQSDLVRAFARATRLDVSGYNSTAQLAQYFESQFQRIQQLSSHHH
Put plainly: disruptors of C. elegans POS-1 RNA interaction – biochemical, fluorescence polarization, dose response (AID 1964). (Polarisation of emitted light reports the rotation of a fluorescent probe.)

Assay [9] in a line: non-specific 3'UTR reporter inhibition in Clone20-Shn3RL – cell-based, Renilla luciferase, cherry-picked, counter-screen for Shn3 inhibitor project, dose response (AID 624133). It counts as functional.

Structures are written as SMILES. The source made the active and inactive calls. For most assays here, no stated cut-off is given here; in the data, actives have a measured EC50 and inactives only a lower limit.

Cytochrome P450 3A4, sequence (P08684 whole entry): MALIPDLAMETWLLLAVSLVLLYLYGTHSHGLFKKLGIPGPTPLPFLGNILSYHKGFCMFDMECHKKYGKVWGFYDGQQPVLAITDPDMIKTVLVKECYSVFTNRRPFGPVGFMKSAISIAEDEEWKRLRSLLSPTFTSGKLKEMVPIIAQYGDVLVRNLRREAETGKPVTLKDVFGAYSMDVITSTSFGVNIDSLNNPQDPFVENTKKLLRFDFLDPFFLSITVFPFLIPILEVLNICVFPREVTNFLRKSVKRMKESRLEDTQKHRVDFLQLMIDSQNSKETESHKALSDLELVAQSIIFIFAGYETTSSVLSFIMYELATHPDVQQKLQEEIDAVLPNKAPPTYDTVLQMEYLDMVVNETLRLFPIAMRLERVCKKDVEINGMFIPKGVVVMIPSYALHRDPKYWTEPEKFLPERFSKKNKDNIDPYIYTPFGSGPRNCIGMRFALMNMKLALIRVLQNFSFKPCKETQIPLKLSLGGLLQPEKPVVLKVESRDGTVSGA

With `C=C(C)C(=O)N1CC2(CC(c3cccc(NC(=O)COc4ccc(Cl)cc4)c3)=NO2)C[C@@H]1C(N)=O` (some centres undefined), in the assay on INS1, the AC50 is 9.67 µM (active).
As to `COc1ccc(NC(=O)CN2C(=O)COc3ccc(S(=O)(=O)N4CCCCCC4)cc32)cc1`, the EC50 in assay [1], in assay [2] and in assay [3] was > 120 µM (not active) throughout.
In the case of `CCCOc1ccc(Cc2c(Cl)nc(SC)nc2N(C)C)cc1`, the results for the EC50 (in assay [4]; at Streptokinase A; in the assay with Streptococcus) were 20.8 µM (active), 24.5 µM (active) and > 150 µM (not active), respectively.
Regarding `CCn1c(SCc2cc(O)nc3ccccc23)nnc1C1CC1`, the half-maximal effective concentration (EC50) in assay [1], in assay [2] and in [3] was > 120 µM (not active) in each case.
Turning to `CC(O)CNc1nc2sc3c(c2c(=O)n1Cc1ccco1)CCCCC3` (centres undefined), the AC50 in the assay with INS1 is 45 µM (active).
Regarding `CCNc1ncc2nc(CCc3ccccc3)c(=O)n(C)c2n1`, the half-maximal activity concentration (AC50) at Cytochrome P450 3A4 is 31.6 µM (inconclusive).
As for `CC1(C)S[C@@H]2[C@H](NC(=O)COc3ccccc3)C(=O)N2C1C(=O)OCC1CCCCC1` (some centres undefined), the EC50 is 9.95 µM (active) in [4], > 150 µM (not active) on Streptokinase A and 14 µM (active) in the assay on Streptococcus.
Take `CCc1ccc(OC)c(S(=O)(=O)Nc2ccc(Cc3ccncc3)cc2)c1`: in the assay on INS1, the AC50 is 3.7 µM (active).
`c1ccc(-c2ccc(C3=Nn4c(nnc4-c4cccs4)SC3)cc2)cc1`: the CC50 in [5] is 16.6 µM (active).
In the case of `O=S(=O)(c1cccs1)N1CCN(CC(O)COc2cc(Cl)ccc2Cl)CC1` (centres undefined), the AC50 in the assay on INS1 is 5.11 µM (active).
`CC(=O)OC[C@H]1O[C@@H](O/N=C(\C)CCN2CCCc3nc(C)c(C)cc32)[C@H](OC(C)=O)[C@@H](OC(C)=O)[C@H]1OC(C)=O`: the half-maximal activity concentration (AC50) on Cytochrome P450 3A4 was 3.98 µM (inconclusive).
For `CCOc1ccccc1-c1nnc(SCC(=O)NC2CC3CCC2C3)n1CC` (centres undefined), the EC50 in [1] was > 120 µM (not active); in assay [2], > 120 µM (not active); in [3], 16.7 µM (active).
Turning to `CCOC(=O)c1cccc(NC(=O)Nc2ccc(OCC)cc2)c1`, the 50% effective concentration (EC50) in [1] is 11.2 µM (inconclusive); in [2], 10.8 µM (active); in assay [3] it was 9.81 µM (active).
On to `O=C(CSC1=NCCS1)Nc1ccc(S(=O)(=O)NC2CCCCC2)cc1`, for which, at Protein RecA, the EC50 was 13.3 µM (active).
Turning to `CN(c1ccccc1)S(=O)(=O)c1cccc(NC(=O)c2cccc(C#N)c2)c1`, the CC50 in assay [5] was 16.1 µM (active).
As to `Cc1ccc(S(=O)(=O)N2CCN(C(=O)c3ccc(N4CCCCC4)c([N+](=O)[O-])c3)CC2)cc1`, the half-maximal cytotoxic concentration (CC50) in assay [5] was > 50 µM (active).
Take `Cc1cc(NC(=O)COC(=O)[C@@H](NS(=O)(=O)c2ccc(Br)cc2)C(C)C)no1`: the EC50 in assay [6] was > 150 µM (inactive).
Turning to `CC1(C)CC(NCc2ccc3c(c2)OCO3)CCO1` (centres undefined), the EC50 in assay [7] is given as > 195 µM (not active). Also, the AC50 on Cytochrome P450 3A4 was 17.8 µM (inconclusive).
Regarding `S=C(c1ccc(-c2ccccc2)cc1)N1CCOCC1`, the values for the EC50 in assay [1], in [2] and in assay [3] were 10.9 µM (active), 15.5 µM (active) and 9.91 µM (active), respectively.
As to `CN1C(=O)N(C)c2cccc3cccc1c23`, the CC50 in [5] is 22.5 µM (active).
Take `CC(=O)N1CCC2(CCCN(c3ccccc3)C2)CC1`: the AC50 on Cytochrome P450 3A4 was 20 µM (inconclusive).
Regarding `Cc1cc(NC(=O)CSc2nc3ccccc3[nH]2)n(-c2ccccc2)n1`, the EC50 in assay [1], in assay [2] and in assay [3] was > 120 µM (not active) throughout.
In the case of `COc1ccc(N2C(=O)NC(=O)/C(=C\c3cn(C)c4ccccc34)C2=O)cc1`, in assay [8], the EC50 is 1.05 µM (active).
In the case of `Cc1ccc(C(=O)NC2CCN(S(=O)(=O)c3ccc(C)cc3)CC2)cc1`, the concentration giving a half-maximal response (EC50) was > 120 µM (not active) in [1], 4.43 µM (active) in assay [2] and 45.4 µM (active) in [3].
Consider `CC(=O)Nc1ccc(NC(=O)CSc2ccc3nnc(CCNS(=O)(=O)c4ccc(C)cc4)n3n2)cc1`, for which the EC50 in [6] is > 160 µM (inactive).
As to `CCSC1=NC(/C=C/c2ccc(Cl)cc2Cl)=CC(C)(C)N1`, the CC50 in assay [5] was 18 µM (active).
As for `O=C(c1ccc(Cl)cc1)c1cnc(Nc2ccccc2Cl)s1`, the results for the EC50 (in assay [4]; at Streptokinase A; with Streptococcus) were 18.9 µM (active), > 150 µM (not active) and 30.5 µM (active), respectively.
With `NNc1nc(Nc2ccccc2)nc(Nc2ccccc2)n1`, the EC50 in assay [4] was 6.74 µM (active); on Streptokinase A, 23.5 µM (active); in the assay with Streptococcus it was > 150 µM (not active).
The matching figures for `COc1ccc(CCNC(=O)C(=O)Nc2ccc3nc4n(c(=O)c3c2)CCCCC4)cc1OC`: 11.3 µM (active), > 150 µM (not active) and > 150 µM (not active).
As for `Cn1nc(C(F)(F)F)c2cc(C(=O)Nc3ccc(Cl)cc3)sc21`, the CC50 in assay [5] is 21.4 µM (active).
For the compound `O=C(CSc1nc2cc(Cl)c[nH]c-2n1)N1CCOCC1`, the AC50 in assay [9] is 32.3 µM (active).
Consider `CCOc1ccc(C(=O)N/N=C(\c2ccccc2)c2ccccn2)cc1`, for which the EC50 is 4.25 µM (active) in [4], > 150 µM (not active) on Streptokinase A and 11.8 µM (active) with Streptococcus. In addition, the AC50 in the assay on INS1 is 1.19 µM (active).
For the compound `CCCC/C(=N\CCc1c(C)[nH]c2ccc(OC)cc12)C1=C(O)CC(c2ccccc2)CC1=O` (centres undefined), the figures for the EC50 in assay [1], in [2] and in assay [3] were 9.11 µM (active), > 120 µM (not active) and 2.61 µM (active), respectively.
Take `COc1ccccc1NC(=O)Nc1nc(-c2cccnc2)nc2ccccc12`: the AC50 at Cytochrome P450 3A4 was 0.631 µM (inconclusive).

Source of the values: ChEMBL document CHEMBL1201862, “PubChem BioAssay data set” (2004).
